Data: the supplement of paper PMC11451515

Tested on: P12-Ichikawa
Experiment: cell viability relative to DMSO control; higher = less cytotoxic
Conditions: 48 h
How it was run: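 Viability, reported as a per-plate percentage of DMSO wells with cell-free wells as background, came from CellTiter-Glo One luminescence. Reading took place after 48 h at 37°C. Before that, NOMO1 or SEM (500 cells/well) or P12-Ichikawa (1000 cells/well) leukemia cells, adapted for at least four passages in each medium, were seeded in 1536-well plates (5 μl) and pin-dosed with library compounds in DMSO, 47 μM to 0.79 nM over 11 threefold points.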

[1] = RPMI 5 mM glucose + 10% FBS, 0.000781 µM
[2] = RPMI 5 mM glucose + 10% FBS, 0.00234 µM
[3] = RPMI 5 mM glucose + 10% FBS, 0.00702 µM
[4] = RPMI 5 mM glucose + 10% FBS, 0.0211 µM
[5] = RPMI 5 mM glucose + 10% FBS, 0.0632 µM
[6] = RPMI 5 mM glucose + 10% FBS, 0.19 µM
[7] = RPMI 5 mM glucose + 10% FBS, 0.569 µM
[8] = RPMI 5 mM glucose + 10% FBS, 1.71 µM
[9] = RPMI 5 mM glucose + 10% FBS, 5.12 µM
[10] = RPMI 5 mM glucose + 10% FBS, 15.4 µM
[11] = RPMI 5 mM glucose + 10% FBS, 46.1 µM
[12] = HPLM + 10% dialyzed FBS, 0.000781 µM
[13] = HPLM + 10% dialyzed FBS, 0.00234 µM
[14] = HPLM + 10% dialyzed FBS, 0.00702 µM
[15] = HPLM + 10% dialyzed FBS, 0.0211 µM
[16] = HPLM + 10% dialyzed FBS, 0.0632 µM
[17] = HPLM + 10% dialyzed FBS, 0.19 µM
[18] = HPLM + 10% dialyzed FBS, 0.569 µM
[19] = HPLM + 10% dialyzed FBS, 1.71 µM
[20] = HPLM + 10% dialyzed FBS, 5.12 µM
[21] = HPLM + 10% dialyzed FBS, 15.4 µM
[22] = HPLM + 10% dialyzed FBS, 46.1 µM
[23] = RPMI 5 mM glucose + 10% dialyzed FBS, 0.000781 µM
[24] = RPMI 5 mM glucose + 10% dialyzed FBS, 0.00234 µM
[25] = RPMI 5 mM glucose + 10% dialyzed FBS, 0.00702 µM
[26] = RPMI 5 mM glucose + 10% dialyzed FBS, 0.0211 µM
[27] = RPMI 5 mM glucose + 10% dialyzed FBS, 0.0632 µM
[28] = RPMI 5 mM glucose + 10% dialyzed FBS, 0.19 µM
[29] = RPMI 5 mM glucose + 10% dialyzed FBS, 0.569 µM
[30] = RPMI 5 mM glucose + 10% dialyzed FBS, 1.71 µM
[31] = RPMI 5 mM glucose + 10% dialyzed FBS, 5.12 µM
[32] = RPMI 5 mM glucose + 10% dialyzed FBS, 15.4 µM
[33] = RPMI 5 mM glucose + 10% dialyzed FBS, 46.1 µM

Compound	cell viability [1] [%]	cell viability [2] [%]	cell viability [3] [%]	cell viability [4] [%]	cell viability [5] [%]	cell viability [6] [%]	cell viability [7] [%]	cell viability [8] [%]	cell viability [9] [%]	cell viability [10] [%]	cell viability [11] [%]	cell viability [12] [%]	cell viability [13] [%]	cell viability [14] [%]	cell viability [15] [%]	cell viability [16] [%]	cell viability [17] [%]	cell viability [18] [%]	cell viability [19] [%]	cell viability [20] [%]	cell viability [21] [%]	cell viability [22] [%]	cell viability [23] [%]	cell viability [24] [%]	cell viability [25] [%]	cell viability [26] [%]	cell viability [27] [%]	cell viability [28] [%]	cell viability [29] [%]	cell viability [30] [%]	cell viability [31] [%]	cell viability [32] [%]	cell viability [33] [%]
NC[C@H]1CC[C@H](C(=O)O)CC1	15	141	125	134	139	123	136	129	132	128	121																						
CC1=NN(c2ccc(C)c(C)c2)C(=O)/C1=N/Nc1cccc(-c2cccc(C(=O)O)c2)c1O												120	120	129	124	116	127	121	118	112	91.1	68.1											
C[C@H](NC(=O)/C(C#N)=C/c1cccc(Br)n1)c1ccccc1	112	119	112	111	118	125	131	88.3	9.63	6.78	6.3	107	113	112	121	119	122	120	45.1	7.82	7.53	7.45	111	109	113	111	109	126	121	79.2	9.86	7.21	6.61
CN\1C(=O)/C(=C(\N=C1N2CCCC[S+]2([O-])=O)C(=O)NCC3=CC=C(F)C=C3)O												124	123	115	113	118	122	119	111	107	109	103	124	116	119	126	127	117	123	120	99.7	109	102
C[C@H](O)[C@H]1[C@@H]2[C@H](C)C(=C(\N2C1=O)C(O)=O)/S[C@@H]3CN[C@H](CN[S+](N)([O-])=O)C3	123	126	123	128	124	122	123	111	117	103	105	118	125	132	129	124	125	124	121	121	113	104											
CC(C)(C)C(=O)Oc1ccc2c(c1)nc(NC(=O)c1cccc([N+](=O)[O-])c1)n2CCCO												120	123	118	119	115	119	116	106	109	111	106	118	122	121	117	118	112	115	103	111	97.4	89.4
C[C@]12CC[C@@H]3c4ccc(OC(=O)N(CCCl)CCCl)cc4CC[C@H]3[C@@H]1CC[C@@H]2OP(=O)([O-])[O-].[Na+].[Na+]	115	118	117	89	5.78	123	118	117	106	98.7	119	118	115	113	94.4	121	117	105	111	113	110	26.6	107	116	117	82.8	117	105	106	111	96	104	88.1
C[C@]12C[C@H](O)[C@H]3[C@@H](CC\C4=C\C(=O)\C=C/[C@]34C)[C@@H]1CC[C@]2(O)C(=O)CO																							128	118	119	121	117	107	88.2	69.7	57.9	52	14
COc1ccc(Cc2ccc(NC(N)=O)cc2)cc1-c1cccc(Cl)c1	114	134	122	131	130	127	117	130	149	132	124	112	115	127	121	118	118	123	124	126	122	116	110	120	113	111	117	119	115	131	121	124	113
